Test results reported in patent US8497278B2, “Imidazo[1,2-a]pyridine compounds” (priority 2008, dated 2013).

Key:
[1] = biological target: T1, α2 subtype containing GABA-A receptors (Homo sapiens, UniProt P18507+P47869); assay: Two-electrode voltage clamp electrophysiology in Xenopus oocytes, potentiation of GABA EC20 response, α2; type: cell-based; conditions: 100 nM compound; for activation at 0.1 µM: read-out: Percentage of potentiation alpha2
T1 construct: expressed in transfected cells; host or cells: Xenopus laevis oocytes, cRNA injected
T1 sequence (P47869 29-451): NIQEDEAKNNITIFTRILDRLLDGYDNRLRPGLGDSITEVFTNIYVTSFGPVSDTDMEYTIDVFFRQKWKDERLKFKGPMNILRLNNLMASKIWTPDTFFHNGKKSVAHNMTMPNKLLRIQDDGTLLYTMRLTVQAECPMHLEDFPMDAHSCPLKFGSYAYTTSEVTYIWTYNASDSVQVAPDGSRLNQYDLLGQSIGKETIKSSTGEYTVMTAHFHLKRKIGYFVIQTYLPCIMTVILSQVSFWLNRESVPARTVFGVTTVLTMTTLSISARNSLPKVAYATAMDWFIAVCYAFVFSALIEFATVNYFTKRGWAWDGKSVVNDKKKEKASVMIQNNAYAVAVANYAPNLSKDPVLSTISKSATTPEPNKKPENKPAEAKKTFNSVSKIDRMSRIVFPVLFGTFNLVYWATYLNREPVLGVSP
T1 sequence (P28472 26-473 partner): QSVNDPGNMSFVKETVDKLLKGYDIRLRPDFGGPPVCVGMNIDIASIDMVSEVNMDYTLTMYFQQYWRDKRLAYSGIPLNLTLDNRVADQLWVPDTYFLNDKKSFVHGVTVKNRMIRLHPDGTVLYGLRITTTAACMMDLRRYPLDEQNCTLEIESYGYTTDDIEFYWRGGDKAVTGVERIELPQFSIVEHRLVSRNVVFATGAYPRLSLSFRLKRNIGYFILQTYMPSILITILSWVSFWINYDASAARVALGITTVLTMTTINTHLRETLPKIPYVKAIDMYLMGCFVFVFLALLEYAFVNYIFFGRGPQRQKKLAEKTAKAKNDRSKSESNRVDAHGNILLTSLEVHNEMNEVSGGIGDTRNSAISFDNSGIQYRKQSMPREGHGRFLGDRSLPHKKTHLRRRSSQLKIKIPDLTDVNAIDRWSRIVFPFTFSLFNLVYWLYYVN
T1 sequence (P18507 40-475): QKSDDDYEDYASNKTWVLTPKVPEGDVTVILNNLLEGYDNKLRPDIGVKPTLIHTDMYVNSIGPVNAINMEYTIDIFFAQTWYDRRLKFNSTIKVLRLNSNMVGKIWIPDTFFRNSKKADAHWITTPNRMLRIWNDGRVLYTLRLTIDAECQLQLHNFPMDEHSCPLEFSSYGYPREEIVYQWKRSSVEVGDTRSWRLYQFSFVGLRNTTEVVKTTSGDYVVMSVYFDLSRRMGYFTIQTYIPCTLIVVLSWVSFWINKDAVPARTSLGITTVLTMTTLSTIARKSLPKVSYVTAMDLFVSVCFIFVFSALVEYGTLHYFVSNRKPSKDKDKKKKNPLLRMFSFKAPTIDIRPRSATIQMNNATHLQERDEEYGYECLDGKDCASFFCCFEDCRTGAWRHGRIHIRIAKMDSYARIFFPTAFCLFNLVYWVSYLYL
Method: (§1) Electrophysiology protocol: Oocytes were prepared from adult female Xenopus laevis frogs. cRNA encoding human α1, α2, α3, α5, β3 and γ2L GABAA receptor subunits was injected into the cytoplasm of stage 5 or 6 oocytes using the Robocyte Robot (Multi Channel Systems, Reutlingen, Germany). Two-electrode voltage clamp recordings were made in 96-well plates using the Robocyte Robot. Oocytes were impaled using recording heads with two glass electrodes containing 1.5 M potassium acetate and 0.5 M KCl and held at a membrane potential of −80 mV. Oocytes were continually perfused with a ND96 solution (96 mM NaCl, 2 mM KCl, 0.1 mM CaCl2, and 5 mM HEPES, pH 7.5) using a Gilson 222 XL Liquid Handler and Gilson Minipuls 3 Peristaltic Pump (Gilson Medical Electronics, Middleton, Wis., USA). The protocol consisted of three 20-s applications of GABA that gave a 20% of the maximum response (EC20: 60 μM) to allow for headroom to determine a baseline GABA response. To assess the potentiation, oocytes were first exposed to a single 1 μM chlordiazepoxide (CDP) as a potentiation standard. Oocytes with insufficient expression levels (currents below threshold) or insufficient γ2L subunit incorporation (judged by rapid desensitization upon GABA application, or by insufficient potentiation by CDP) were not included in analysis. Following this control application, a given oocyte was exposed to test compounds at 100 nM concentrations. Only one concentration of one compound was tested per oocyte. […] One skilled in the art will recognize that subtypes contribute to the effects of GABA-A modulators. Such that compounds favoring different subtypes can have different therapeutic effects. The magnitude of modulation, for example, partial modulators can influence the effects in vivo. “++” indicates a greater modulation that “+” so that at any given subtype “++” inducates a greater amount of modulation for that subtype. In some embodiments, modulation favoring alpha 1 relative to alpha2 and/or alpha 3 can have sedative hypnotic effects. In other embodiments, compounds with reduced selectivity of alpha 1 can express anxiolytic effects with less sedation. Compounds with selectivity for alpha 5 can have memory/cognition enhancing effects.

[2] = biological target: T2, α1 subtype containing GABA-A receptors (Homo sapiens, UniProt P14867+P18507); assay: Two-electrode voltage clamp electrophysiology in Xenopus oocytes, potentiation of GABA EC20 response, α1; type: cell-based; conditions: 100 nM compound; for activation at 0.1 µM: read-out: Percentage of potentiation alpha1
T2 construct: expressed in transfected cells; host or cells: Xenopus laevis oocytes, cRNA injected
T2 sequence (P14867 28-456): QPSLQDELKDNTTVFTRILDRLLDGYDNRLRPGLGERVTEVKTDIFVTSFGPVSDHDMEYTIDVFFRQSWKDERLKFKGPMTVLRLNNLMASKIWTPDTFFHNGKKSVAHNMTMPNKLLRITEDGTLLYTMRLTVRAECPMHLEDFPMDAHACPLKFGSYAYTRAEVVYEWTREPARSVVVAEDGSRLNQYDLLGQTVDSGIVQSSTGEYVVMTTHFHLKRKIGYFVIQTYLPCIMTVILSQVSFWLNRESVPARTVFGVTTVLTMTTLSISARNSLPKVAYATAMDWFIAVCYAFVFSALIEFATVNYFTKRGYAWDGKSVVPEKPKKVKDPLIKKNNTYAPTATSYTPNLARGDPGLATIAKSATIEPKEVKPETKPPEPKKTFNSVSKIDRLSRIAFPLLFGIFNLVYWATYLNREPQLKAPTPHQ
T2 sequence (P28472 26-473 partner): as the sequence (P28472 26-473 partner) above
T2 sequence (P18507 40-475): as the sequence (P18507 40-475) above
Method: as §1

[3] = system: central benzodiazepine receptors; assay: Central benzodiazepine receptor binding (test of Speth et al.); conditions: 1000 nM of the compound
In short: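 Radioligand binding by the Speth et al. method. Specific binding is total minus nonspecific binding, the latter measured with excess unlabelled ligand. Compounds screened at 1.0E-09, 1.0E-07 and 1.0E-05 M in single determination; values given as percent inhibition at 1000 nM compound.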

| SMILES | % Inhibition at 1000 nM for CBZD [3] | also measured |
| --- | --- | --- |
| COC(=O)c1ncn(Cc2c(-c3ccc(Cl)cc3)nc3ccccn23)n1 [Compound 25, 1-[2-(4-Chloro-phenyl)-imidazo[1,2-a]pyridin-3-ylmethyl]-1H-[1,2,4]triazole-3-carboxylic acid methyl ester] |  | activation at 0.1 µM [1]: ≥ 50%; activation at 0.1 µM [2]: 10 to 50% |
| Clc1ccc(-c2nc3ccccn3c2Cn2nnc3ccccc32)cc1 [Compound 42, 1-((2-(4-chlorophenyl)H-imidazo[1,2-a]pyridin-3-yl)methyl)-1H-benzo[d][1,2,3]triazole] |  | Percentage of potentiation alpha2 [1]: + (percentage of potentiation is greater than or equal to 10% but less than 50% in the presence of 100 nM of the compound); Percentage of potentiation alpha1 [2]: + (percentage of potentiation is greater than or equal to 10% but less than 50% in the presence of 100 nM of the compound) |
| CNC(=O)c1ncn(Cc2c(-c3ccc(Cl)cc3)nc3ccccn23)n1 [Compound 73, 1-((2-(4-chlorophenyl)imidazo[1,2-a]pyridin-3-yl)methyl)-N-methyl-1H-1,2,4-triazole-3-carboxamide] |  | activation at 0.1 µM [1]: 10 to 50%; activation at 0.1 µM [2]: 10 to 50% |
| CN(C)c1ccn(Cc2c(-c3ccc(Cl)cc3)nc3ccccn23)c(=O)n1 [Compound 135, 1-((2-(4-chlorophenyl)imidazo[1,2-a]pyridin-3-yl)methyl)-4-(dimethylamino)pyrimidin-2(1H)-one] | ++ (percentage of inhibition of central BZD site binding is greater than 80% in the presence of 1000 nM of the compound) | activation at 0.1 µM [1]: ≥ 50% |
| Cc1ccc(-c2nc3ccc(C)cn3c2CNc2nc(C)cc(Cl)n2)cc1 [Compound 147, 4-chloro-6-methyl-N-((6-methyl-2-p-tolylimidazo[1,2-a]pyridin-3-yl)methyl)pyrimidin-2-amine] | ++ (percentage of inhibition of central BZD site binding is greater than 80% in the presence of 1000 nM of the compound) | activation at 0.1 µM [2]: ≥ 50% |
| Cc1ccnc(NCc2c(-c3ccc(Cl)cc3)nc3ccccn23)n1 [Compound 157, [2-(4-Chloro-phenyl)-imidazo[1,2-a]pyridin-3-ylmethyl]-(4-methyl-pyrimidin-2-yl)-amine] | ++ (percentage of inhibition of central BZD site binding is greater than 80% in the presence of 1000 nM of the compound) | activation at 0.1 µM [2]: 10 to 50% |
| Cc1cc(Cl)nc(NCc2c(-c3ccc(F)cc3)nc3ccc(Cl)cn23)n1 [Compound 162, 4-chloro-N-((6-chloro-2-(4-fluorophenyl)imidazo[1,2-a]pyridin-3-yl)methyl)-6-methylpyrimidin-2-amine] | ++ (percentage of inhibition of central BZD site binding is greater than 80% in the presence of 1000 nM of the compound) | activation at 0.1 µM [2]: 10 to 50% |
| CN(C)CCNc1cncc(Cc2c(-c3ccc(Cl)cc3)nc3ccccn23)n1 [Compound 190, N1-(6-((2-(4-chlorophenyl)imidazo[1,2-a]pyridin-3-yl)methyl)pyrazin-2-yl)-N2,N2-dimethylethane-1,2-diamine] | ++ (percentage of inhibition of central BZD site binding is greater than 80% in the presence of 1000 nM of the compound) |  |
| CC(C)(C)OC(=O)N1CCCC1c1ccnc(NCc2c(-c3ccc(F)cc3)nc3ccc(Cl)cn23)n1 (stereo not drawn) [Compound 194, Tert-butyl 2-(2-((6-chloro-2-(4-fluorophenyl)imidazo[1,2-a]pyridin-3-yl)methylamino)pyrimidin-4-yl)pyrrolidine-1-carboxylate] | + (percentage of inhibition of central BZD site binding is greater than 50% but less than 80% in the presence of 1000 nM of the compound) |  |
| Cn1ccnc1Cc1c(-c2ccc(F)cc2)nc2ccc(F)cn12 [Compound 199, 6-fluoro-2-(4-fluorophenyl)-3-((1-methyl-1H-imidazol-2-yl)methyl)imidazo[1,2-a]pyridine] | ++ (percentage of inhibition of central BZD site binding is greater than 80% in the presence of 1000 nM of the compound) |  |
| Cc1nc(Cc2c(-c3ccc(F)cc3)nc3ccc(F)cn23)no1 [Compound 201, 3-((6-fluoro-2-(4-fluoropnyl)imidazo[1,2-a]pyridin-3-yl)methyl)-5-methyl-1,2,4-oxadiazole] | ++ (percentage of inhibition of central BZD site binding is greater than 80% in the presence of 1000 nM of the compound) |  |
| Cc1nc(Cc2c(-c3ccc(Cl)cc3)nc3ccccn23)no1 [Compound 202, 3-((2-(4-chlorophenyl)imidazo[1,2-a]pyridin-3-yl)methyl)-5-methyl-1,2,4-oxadiazole] | ++ (percentage of inhibition of central BZD site binding is greater than 80% in the presence of 1000 nM of the compound) |  |
| Cc1ccc2nc(-c3ccc(Cl)cc3)c(Cc3nnc(C)o3)n2c1 [Compound 203, 2-((2-(4-chlorophenyl)-6-methylimidazo[1,2-a]pyridin-3-yl)methyl)-5-methyl-1,3,4-oxadiazole] | ++ (percentage of inhibition of central BZD site binding is greater than 80% in the presence of 1000 nM of the compound) |  |
| Fc1ccc(-c2nc3ccc(F)cn3c2Cc2ncn[nH]2)cc1 [Compound 210, 3-((1H-1,2,4-triazol-5-yl)methyl)-6-fluoro-2-(4-fluorophenyl)imidazo[1,2-a]pyridine] | ++ (percentage of inhibition of central BZD site binding is greater than 80% in the presence of 1000 nM of the compound) |  |
| Clc1ccc(-c2nc3ccc(Cl)cn3c2Cc2cn[nH]n2)cc1 [Compound 227, 3-((2H-1,2,3-triazol-4-yl)methyl)-6-chloro-2-(4-chlorophenyl)imidazo[1,2-a]pyridine] | ++ (percentage of inhibition of central BZD site binding is greater than 80% in the presence of 1000 nM of the compound) | activation at 0.1 µM [2]: ≥ 50% |
| CC(C)c1nnc(Cc2c(-c3ccc(Cl)cc3)nc3ccccn23)[nH]1 [Compound 231, 2-(4-chlorophenyl)-3-((5-isopropyl-4H-1,2,4-triazol-3-yl)methyl)imidazo[1,2-a]pyridine] | ++ (percentage of inhibition of central BZD site binding is greater than 80% in the presence of 1000 nM of the compound) |  |
| CC(C)c1nnc(Cc2c(-c3ccccc3)nc3ccc(Cl)cn23)[nH]1 [Compound 232, 6-chloro-3-((5-isopropyl-4H-1,2,4-triazol-3-yl)methyl)-2-phenylimidazo[1,2-a]pyridine] | ++ (percentage of inhibition of central BZD site binding is greater than 80% in the presence of 1000 nM of the compound) |  |
| CNc1nnc(Cc2c(-c3ccc(Cl)cc3)nc3ccccn23)s1 [Compound 235, 5-((2-(4-chlorophenyl)imidazo[1,2-a]pyridin-3-yl)methyl)-N-methyl-1,3,4-thiadiazol-2-amine] | + (percentage of inhibition of central BZD site binding is greater than 50% but less than 80% in the presence of 1000 nM of the compound) |  |
| O=c1[nH]c(Cc2c(-c3ccc(F)cc3)nc3ccc(F)cn23)no1 [Compound 236, 3-((6-fluoro-2-(4-fluorophenyl)imidazo[1,2-a]pyridin-3-yl)methyl)-1,2,4-oxadiazol-5(4H)-one] | ++ (percentage of inhibition of central BZD site binding is greater than 80% in the presence of 1000 nM of the compound) |  |
| O=C1C=C(N2CCCCC2)CN1Cc1c(-c2ccc(Cl)cc2)nc2ccccn12 [Compound 239, 1-((2-(4-chlorophenyl)imidazo[1,2-a]pyridin-3-yl)methyl)-4-(piperidin-1-yl)-1H-pyrrol-2(5H)-one] | ++ (percentage of inhibition of central BZD site binding is greater than 80% in the presence of 1000 nM of the compound) |  |
| O=C1C=C(N2CCC(O)CC2)CN1Cc1c(-c2ccc(Cl)cc2)nc2ccccn12 [Compound 241, 1-((2-(4-chlorophenyl)imidazo[1,2-a]pyridin-3-yl)methyl)-4-(4-hydroxypiperidin-1-yl)-1H-pyrrol-2(5H)-one] | ++ (percentage of inhibition of central BZD site binding is greater than 80% in the presence of 1000 nM of the compound) |  |
| CN1CCN(c2cc(Cc3c(-c4ccc(Cl)cc4)nc4ccccn34)ncn2)CC1 [Compound 244, 2-(4-chlorophenyl)-3-((6-(4-methylpiperazin-1-yl)pyrimidin-4-yl)methyl)imidazo[1,2-a]pyridine] | ++ (percentage of inhibition of central BZD site binding is greater than 80% in the presence of 1000 nM of the compound) |  |
